Test results taken from the NIST ThermoML archive (doi:10.1016/j.jct.2018.06.026).
Numbers after ± are expanded uncertainties.

Legend:
[1] = refractive index (Na D-line) (dimensionless); wn = mass fraction of the nth substance listed; details: 100 kPa, Liquid, Standard Abbe refractometry
[2] = wn = mass fraction of the nth substance listed; details: 100 kPa, Liquid, Vibrating tube method

[Cl-].[Na+] [sodium chloride] + O
refractive index ([1]; 293.15 K, w1 = 0.265): 1.38027 ± 0.002
refractive index ([1]; 313.15 K, w1 = 0.2717): 1.37386 ± 0.002
mass density ([2]; 293.15 K, w1 = 0.265): 1200.01 ± 10 kg/m3
mass density ([2]; 313.15 K, w1 = 0.2717): 1181.06 ± 10 kg/m3
